# Experiments:
# carboxypeptidase Y and B = assay: Metabolic stability in carboxypeptidase mix (ESMS, SIM of molecular ion); type: in vitro ADME; details: 0.025 mg/ml, 50 mM ammoniumacetate pH 4.5, 37° C., 24 h in degradation solution, enzyme:substrate approx. 1:5
# Procedure: (§1) The solution is left at 37° C. overnight.
# (§2) Identification of degradation products furthermore involved the use of plasma desorption mass spectrometry (PDMS) with sample application on nitrocellulose coated targets and standard instrumental settings. The accuracy of the hereby determined masses is generally better than 0.1%.
# (§3) Separation and isolation of degradation products was done using a HY-TACH C-18 reverse phase 4.6×105 mm HPLC column (Hewlett-Packard Company, Palo Alto, Calif.) with a standard acetonitril: TFA separation gradient. The HPLC system used was HP1090M (Hewlett-Packard Company, Palo Alto, Calif.).
# [1] = test system: trypsin, chymotrypsin and elastase; assay: Metabolic stability in pancreatic enzyme mix (ESMS, SIM of molecular ion); type: in vitro ADME; details: 0.025 mg/ml, 100 mM ammoniumbicarbonate pH 8.0, 37° C., 24 h in degradation solution, enzyme:substrate approx. 1:5
# Procedure: as §1, §2, §3
substance,measurement,setting,value
Glucagon,Carboxy-peptidase mix (stability),carboxypeptidase Y and B,− (Unstable (more than 20% decrease in SIM signal after 24 h in degradation solution))
same,Pan. enzyme mix (stability),[1],− (Unstable (more than 20% decrease in SIM signal after 24 h in degradation solution))
